Measured values published in patent publication US7601673B2 (priority 2004, dated 2009).
Where two headings read alike, the source gives them in different places.

System: Phytophthora infestans
Format: in vivo, Phytophthora infestans on tomato plants
Conditions: individual active compound, tomato leaves, protective, rated after 6 days

Row | Structure (SMILES) | Efficacy in % of the untreated control (1 ppm in the spray liquor) | Efficacy in % of the untreated control (0.25 ppm in the spray liquor) | Efficacy in % of the untreated control (4 ppm in the spray liquor)
1 | Cc1c(Br)c2ccc(F)cc2n1S(=O)(=O)c1ncn(S(=O)(=O)N(C)C)n1 [I-62, Tab.7 (IA), N,N-dimethyl-3-(3-bromo-6-fluoro-2-methylindole-1-sulfonyl)-[1,2,4]triazole-1-sulfonamide] | 56% |  | 
2 | CC1CCN(c2c(-c3c(F)cc(F)cc3F)c(Cl)nc3ncnn23)CC1 [II, 5-chloro-7-(4-methylpiperidin-1-yl)-6-(2,4,6-trifluorophenyl)-[1,2,4]triazolo[1,5-a]pyrimidine] | 0% | 0% | 0%
